Test results as given in US7135466B2 (Kirin Beer Kabushiki Kaisha, priority 1999, dated 2006).
Read-outs that look alike come from different tables or passages of the source.

Key:
c-kit = target: T1, c-kit (Homo sapiens, UniProt P10721); assay: Inhibitory activity against c-kit autophosphorylation (MO7e cells, h-SCF); format: cell-based; conditions: for IC50: MO7e cells, read-out: c-kit IC50; for inhibition at 1 µM: Mo7e, at 1000 nM
T1 construct: MO7e (human megakaryocytic leukemia cell line) which had been arrested for 20 hr; endogenous in cells; host or cells: MO7e human megakaryocytic leukemia cell line
Summary of the method: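 First, human megakaryocytic leukemia MO7e cells arrested 20 hr receive compound for one hour. Second, SCF stimulation (50 ng/ml) runs 5 min, after which cells are solubilized. Third, tyrosine-phosphorylated c-kit in the lysate is quantified by sandwich ELISA with absorbance at 450 nm.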

PDGF-Ra = target: T2, PDGF-Ra (Homo sapiens, UniProt P16234); assay: Inhibitory activity against PDGF-Ra phosphorylation by PDGF-AA stimulation using G292; format: cell-based; conditions: for IC50: > means inhibition at indicated concentration not more than 50%, < and << not less than 50%, read-out: PDGF (E) IC50; for inhibition at 0.1 µM: G292, at 100 nM, read-out: PDGF (E) inhibition (%) at 100 nM
T2 construct: host or cells: G-292 human osteosarcoma cells
Summary of the method: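 G-292 human osteosarcoma cells in 0.1% FBS medium overnight, given compound for 1 hr at 37° C, then PDGF-AA 50 ng/ml for 5 min. Lysates captured on anti-phosphotyrosine (PY-20) plates and probed with anti-PDGF-Ra plus HRP secondary; absorbance at 450 nm.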

[1] = figure in parentheses in >100( )
[2] = figure within parentheses in >100( )

T1 sequence (P10721 26-976): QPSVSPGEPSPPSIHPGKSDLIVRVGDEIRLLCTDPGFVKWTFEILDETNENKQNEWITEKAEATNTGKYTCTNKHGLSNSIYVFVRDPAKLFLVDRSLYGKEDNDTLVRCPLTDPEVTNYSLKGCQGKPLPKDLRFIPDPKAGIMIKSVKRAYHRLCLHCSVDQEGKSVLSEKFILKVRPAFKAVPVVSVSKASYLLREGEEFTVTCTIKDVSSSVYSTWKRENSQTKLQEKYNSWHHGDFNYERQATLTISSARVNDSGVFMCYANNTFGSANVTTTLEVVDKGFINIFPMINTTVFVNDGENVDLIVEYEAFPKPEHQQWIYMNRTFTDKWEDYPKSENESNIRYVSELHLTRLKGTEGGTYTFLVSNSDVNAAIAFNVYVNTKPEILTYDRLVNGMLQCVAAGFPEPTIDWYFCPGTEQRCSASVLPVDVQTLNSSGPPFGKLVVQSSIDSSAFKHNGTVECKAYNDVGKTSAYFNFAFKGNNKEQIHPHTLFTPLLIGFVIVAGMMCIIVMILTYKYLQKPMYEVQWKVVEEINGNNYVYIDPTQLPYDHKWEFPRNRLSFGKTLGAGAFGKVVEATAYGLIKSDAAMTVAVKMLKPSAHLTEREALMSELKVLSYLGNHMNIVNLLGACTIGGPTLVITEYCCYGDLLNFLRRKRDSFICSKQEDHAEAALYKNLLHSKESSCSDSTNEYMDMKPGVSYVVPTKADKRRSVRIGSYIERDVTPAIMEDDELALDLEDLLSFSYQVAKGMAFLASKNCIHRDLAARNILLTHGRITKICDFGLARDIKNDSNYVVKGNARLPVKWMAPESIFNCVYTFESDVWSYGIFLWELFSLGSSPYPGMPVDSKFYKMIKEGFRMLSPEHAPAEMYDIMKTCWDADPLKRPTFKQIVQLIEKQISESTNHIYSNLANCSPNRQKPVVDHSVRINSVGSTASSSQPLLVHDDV
T2 sequence (P16234 24-1089): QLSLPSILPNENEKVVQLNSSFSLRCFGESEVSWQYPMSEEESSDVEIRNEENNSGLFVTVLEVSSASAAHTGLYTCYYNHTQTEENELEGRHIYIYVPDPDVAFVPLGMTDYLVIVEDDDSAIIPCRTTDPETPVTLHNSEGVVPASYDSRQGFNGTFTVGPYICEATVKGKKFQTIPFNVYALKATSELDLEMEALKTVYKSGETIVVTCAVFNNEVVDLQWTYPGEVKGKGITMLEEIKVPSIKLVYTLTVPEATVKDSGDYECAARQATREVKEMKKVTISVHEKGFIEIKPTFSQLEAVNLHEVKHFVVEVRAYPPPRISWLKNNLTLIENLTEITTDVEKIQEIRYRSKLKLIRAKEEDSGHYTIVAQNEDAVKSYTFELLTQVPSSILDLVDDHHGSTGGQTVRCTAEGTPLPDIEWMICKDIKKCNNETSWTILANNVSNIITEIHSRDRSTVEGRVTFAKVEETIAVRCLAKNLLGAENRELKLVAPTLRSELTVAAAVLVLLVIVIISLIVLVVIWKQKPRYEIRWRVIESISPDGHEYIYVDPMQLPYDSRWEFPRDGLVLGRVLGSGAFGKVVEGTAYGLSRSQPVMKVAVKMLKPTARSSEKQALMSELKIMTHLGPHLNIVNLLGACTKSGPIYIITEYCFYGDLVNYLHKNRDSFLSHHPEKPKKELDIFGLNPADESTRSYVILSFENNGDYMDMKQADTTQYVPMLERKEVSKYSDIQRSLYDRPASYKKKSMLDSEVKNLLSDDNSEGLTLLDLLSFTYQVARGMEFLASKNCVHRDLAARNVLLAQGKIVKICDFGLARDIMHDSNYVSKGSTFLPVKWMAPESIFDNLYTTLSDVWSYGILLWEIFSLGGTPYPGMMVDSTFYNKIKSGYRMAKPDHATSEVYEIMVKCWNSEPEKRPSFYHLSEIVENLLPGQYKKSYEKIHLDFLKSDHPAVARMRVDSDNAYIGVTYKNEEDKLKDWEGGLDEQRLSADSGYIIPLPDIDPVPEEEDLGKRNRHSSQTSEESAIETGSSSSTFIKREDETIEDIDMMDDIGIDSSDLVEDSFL

| Compound | IC50 (c-kit; h-SCF 50 ng/ml) [nM] | IC50 (PDGF-Ra; Pharmacological Test Example 1) [nM] | IC50 (PDGF-Ra) [nM] | other results |
| --- | --- | --- | --- | --- |
| COc1cc2nccc(Oc3ccc(NC(=O)OCCc4ccccc4)c(C)c3C)c2cc1OC [Example 299, Phenethyl N-{4-[(6,7-dimethoxy-4-quinolyl)oxy]-2,3-dimethylphenyl}carbamate] | 53 | < 10 | – | – |
| CCC(CC)OC(=O)Nc1ccc(Oc2ncnc3cc(OC)c(OC)cc23)cc1Cl [Example 362, 1-Ethylpropyl N-{2-chloro-4-[(6,7-dimethoxy-4-quinazolinyl)oxy]phenyl}carbamate] | – | 42 | – | inhibition at 1 µM (c-kit; figure in parentheses in −( )): 26% |
| COc1cc2ncnc(Oc3ccc(NC(=O)OCCCOc4ccccc4OC)cc3)c2cc1OC [Example 160, 3-(2-Methoxyphenoxy)propyl N-{4-[(6,7-dimethoxy-4-quinazolinyl)oxy]phenyl}carbamate] | 52 | 16 | – | – |
| CCCC(OC(=O)Nc1ccc(Oc2ncnc3cc(OC)c(OC)cc23)cc1)c1ccccc1 (stereo not shown) [Example 187, 1-Phenylbutyl N-{4-[(6,7-dimethoxy-4-quinazolinyl)oxy]phenyl}carbamate] | 561 | < 10 | – | – |
| CCC(OC(=O)Nc1ccc(Oc2ccnc3cc(OC)c(OC)cc23)cc1)c1ccccc1 (stereo not shown) [Example 263, 1-Phenylpropyl N-{4-[(6,7-dimethoxy-4-quinolyl)oxy]phenyl}carbamate] | 329 | 10 | – | – |
| COc1cc2nccc(Oc3ccc(NCCOc4ccccc4OC)cc3C)c2cc1OC [Example 880, N-{4-[(6,7-Dimethoxy-4-quinolyl)oxy]-3-methylphenyl}-N-[2-(2-methoxyphenoxy)ethyl]amine] | – | – | 16 | IC50 (c-kit; h-SCF stimulation): 149 nM |
| COc1cc2nccc(Oc3ccc(N(C)C(=O)OCC4CCCCCC4)cc3)c2cc1OC [Example 483, Cycloheptylmethyl N-{4-[(6,7-dimethoxy-4-quinolyl)oxy]phenyl}-N-methylcarbamate] | – | – | 20 | IC50 (c-kit; 50 ng/ml h-SCF): < 30 nM |
| COc1cc2nccc(Oc3cc(C)c(NC(=O)OCCCOc4ccccc4F)cc3C)c2cc1OC [Example 144, 3-(2-Fluorophenoxy)propyl N-{4-[(6,7-dimethoxy-4-quinolyl)oxy]-2,5-dimethylphenyl}carbamate] | 49 | 18 | – | – |
| CCC(C(=O)NC(=S)Nc1ccc(Oc2ccnc3cc(OC)c(OC)cc23)cc1)c1ccccc1 (stereo not shown) [Example 747, N-{4-[(6,7-Dimethoxy-4-quinolyl)oxy]phenyl}-N′-(2-phenylbutanoyl)thiourea] | – | – | 35 | IC50 (c-kit; 50 ng/ml h-SCF): 759 nM |
| N-{4-[(6,7-Dimethoxy-4-quinolyl)oxy]-2-methoxyphenyl}-N′-(1-homopiperidinyl)urea [Example 600] | – | – | < 10 | IC50 (c-kit; 50 ng/ml h-SCF): 208 nM |
| COc1cc2ncnc(Oc3ccc(NC(=O)OCCCOc4ccc(F)cc4)cc3)c2cc1OC [Example 155, 3-(4-Fluorophenoxy)propyl N-{4-[(6,7-dimethoxy-4-quinazolinyl)oxy]phenyl}carbamate] | 41 | 14 | – | – |
| COc1ccccc1COC(=O)Nc1cc(C)c(Oc2ccnc3cc(OC)c(OC)cc23)cc1C [Example 239, 2-Methoxybenzyl N-{4-[(6,7-dimethoxy-4-quinolyl)oxy]-2,5-dimethylphenyl}carbamate] | 183 | 9 | – | – |
| COc1ccc(C(C)OC(=O)Nc2cc(C)c(Oc3ccnc4cc(OC)c(OC)cc34)cc2C)cc1 (stereo not shown) [Example 34, 1-(4-Methoxyphenyl)ethyl N-{4-[(6,7-dimethoxy-4-quinolyl)oxy]-2,5-dimethylphenyl}carbamate] | 800 | > 100 | – | inhibition at 0.1 µM (PDGF-Ra; [1]): 45% |
| COc1ccccc1NCCOc1ccc(Oc2ccnc3cc(OC)c(OC)cc23)cc1 [Example 777, N-(2-{4-[(6,7-Dimethoxy-4-quinolyl)oxy]phenoxy}ethyl)-N-(2-methoxyphenyl)amine] | – | – | 11 | IC50 (c-kit; 50 ng/ml h-SCF): 11 nM |
| COc1cc2nccc(Oc3ccc(NC(=S)NC(=O)CCC4CCCC4)c(Cl)c3)c2cc1OC [Example 1106, N-{2-Chloro-4-[(6,7-dimethoxy-4-quinolyl)oxy]phenyl}-N′-(3-cyclopentylpropanoyl)thiourea] | – | – | > 100 | inhibition at 1 µM (c-kit; figure in parentheses in −( )): 0%; inhibition at 0.1 µM (PDGF-Ra; [1]): 30% |
| COc1cc2nccc(Oc3ccc(NC(=S)NC(=O)N4CCOCC4)cc3)c2cc1OC [Example 1045, N-{4-[(6,7-Dimethoxy-4-quinolyl)oxy]phenyl}-N′-morpholinocarbonylthiourea] | – | – | 17 | IC50 (c-kit; h-SCF stimulation): 193 nM |

| Compound | IC50 (c-kit; h-SCF 50 ng/ml) [nM] | IC50 (PDGF-Ra; Pharmacological Test Example 1) [nM] | IC50 (PDGF-Ra) [nM] | other results |
| --- | --- | --- | --- | --- |
| CCN(CC)CCNC(=O)Nc1ccc(Oc2ccnc3cc(OC)c(OC)cc23)cc1[N+](=O)[O-] [Example 646, N-[2-(Diethylamino)ethyl]-N′-{4-[(6,7-dimethoxy-4-quinolyl)oxy]-2-nitrophenyl}urea] | – | – | 11 | inhibition at 1 µM (c-kit; figure within parentheses in −( ) or >1000( )): 0% |
| CCC(CC)OC(=O)Nc1cc(C)c(Oc2ccnc3cc(OC)c(OC)cc23)cc1C [Example 359, 1-Ethylpropyl N-{4-[(6,7-dimethoxy-4-quinolyl)oxy]-2,5-dimethylphenyl}carbamate] | 274 | 28 | – | – |
| COc1ccc(COC(=O)Nc2ccc(Oc3ncnc4cc(OC)c(OC)cc34)cc2Cl)cc1OC [Example 66, 3,4-Dimethoxybenzyl N-{2-chloro-4-[(6,7-dimethoxy-4-quinazolinyl)oxy]phenyl}carbamate] | 353 | 50 | – | – |
| COc1cccc(OC(=O)Nc2cc(C)c(Oc3ccnc4cc(OC)c(OC)cc34)cc2C)c1 [Example 290, 3-Methoxyphenyl N-{4-[(6,7-dimethoxy-4-quinolyl)oxy]-2,5-dimethylphenyl}carbamate] | 281 | 47 | – | – |
| COc1cc2nccc(Oc3ccc(NC(=S)NC(=O)c4ccccc4Cl)c(F)c3)c2cc1OC [Example 905, N-(2-Chlorobenzoyl)-N′-{4-[(6,7-dimethoxy-4-quinolyl)oxy]-2-fluorophenyl}thiourea] | – | – | 5 | inhibition at 1 µM (c-kit; figure in parentheses in −( )): 40% |
| COc1cc2ncnc(Oc3ccc(NC(=O)OCC4CCC4)cc3)c2cc1OC [Example 388, Cyclobutylmethyl N-{4-[(6,7-dimethoxy-4-quinazolinyl)oxy]phenyl}carbamate] | 60 | 12 | – | – |
| COc1cc2nccc(Oc3cc(C)c(NC(=O)NCCN(C)C)cc3C)c2cc1OC [Example 625, N-{4-[(6,7-Dimethoxy-4-quinolyl)oxy]-2,5-dimethylphenyl}-N′-[2-(dimethylamino)ethyl]urea] | – | – | > 100 | IC50 (c-kit; 50 ng/ml h-SCF): 596 nM; inhibition at 0.1 µM (PDGF-Ra; [2]): 31% |
| COc1cc2nccc(Oc3cc(C)c(NC(=O)Oc4ccccc4C(C)(C)C)cc3C)c2cc1OC [Example 301, 2-(Tert-butyl)phenyl N-{4-[(6,7-dimethoxy-4-quinolyl)oxy]-2,5-dimethylphenyl}carbamate] | – | 43 | – | inhibition at 1 µM (c-kit; figure in parentheses in −( )): 39% |
| COc1cc2nccc(Oc3ccc(NC(=S)NC(=O)COc4ccccc4C)cc3Cl)c2cc1OC [Example 740, N-{3-Chloro-4-[(6,7-dimethoxy-4-quinolyl)oxy]phenyl}-N′-[2-(2-methylphenoxy)acetyl]thiourea] | – | – | 23 | IC50 (c-kit; 50 ng/ml h-SCF): 335 nM |
| COc1cc2nccc(Oc3ccc(NC(=O)OC4CCCCCC4)c(C)c3C)c2cc1OC [Example 288, Cycloheptyl N-{4-[(6,7-dimethoxy-4-quinolyl)oxy]-2,3-dimethylphenyl}carbamate] | 162 | < 10 | – | – |
| COc1cc2ncnc(Oc3ccc(NC(=O)OCCCOc4cccc(F)c4)c(C)c3C)c2cc1OC [Example 151, 3-(3-Fluorophenoxy)propyl N-{4-[(6,7-dimethoxy-4-quinazolinyl)oxy]-2,3-dimethylphenyl}carbamate] | 32 | 12 | – | – |
| COc1cc2nccc(Oc3cc(C)c(NC(=O)OCCC4CCCCC4)cc3C)c2cc1OC [Example 354, 2-Cyclohexylethyl N-{4-[(6,7-dimethoxy-4-quinolyl)oxy]-2,5-dimethylphenyl}carbamate] | 384 | 15 | – | – |
| COc1ccc(C(C)OC(=O)Nc2ccc(Oc3ncnc4cc(OC)c(OC)cc34)cc2Cl)cc1 (stereo not shown) [Example 36, 1-(4-Methoxyphenyl)ethyl N-{2-chloro-4-[(6,7-dimethoxy-4-quinazolinyl)oxy]phenyl}carbamate] | – | > 100 | – | inhibition at 1 µM (c-kit; figure in parentheses in −( )): 19%; inhibition at 0.1 µM (PDGF-Ra; [1]): 34% |
| CCCC(CCN1CCN(C)CC1)OC(=O)Nc1ccc(Oc2ccnc3cc(OC)c(OC)cc23)c(C)c1C (stereo not shown) [Example 451, 1-[2-(4-Methylpiperazino)ethyl]butyl N-{4-[(6,7-dimethoxy-4-quinolyl)oxy]-2,3-dimethylphenyl}carbamate] | – | – | > 100 | IC50 (c-kit; 50 ng/ml h-SCF): 613 nM; inhibition at 0.1 µM (PDGF-Ra; [2]): 25% |
| CCN(CCNC(=S)Nc1cc(C)c(Oc2ccnc3cc(OC)c(OC)cc23)cc1C)c1ccccc1C [Example 540, N-{4-[(6,7-Dimethoxy-4-quinolyl)oxy]-2,5-dimethylphenyl}-N′-{2-[N-ethyl-N-(o-tolyl)amino]-ethyl}thiourea] | – | – | 48 | IC50 (c-kit; 50 ng/ml h-SCF): 447 nM |
| CCN(CC)CCOC(=O)Nc1ccc(Oc2ncnc3cc(OC)c(OC)cc23)cc1 [Example 436, 2-(Diethylamino)ethyl N-{4-[(6,7-dimethoxy-4-quinazolinyl)oxy]phenyl}carbamate] | – | – | > 100 | IC50 (c-kit; 50 ng/ml h-SCF): 878 nM; inhibition at 0.1 µM (PDGF-Ra; [2]): 46% |
